Experimental data reported in US12264146B2, “Rho kinase inhibitor, method for preparing same and uses thereof” (BEIJING INCREASE INNOVATIVE DRUG CO., LTD., priority 2018, dated 2025).

Experiments:
endothelin (ET-1) = assay: Expression of endothelin (ET-1) in EA.Hy926 endothelial cells, detection kit; format: cell-based, human; settings: EA.Hy926 cell supernatant, 48 h
Description: (§1) Commercially available cytokine kits were used to detect the effects of the compounds of the present application on vascular endothelium-derived contracting factor endothelin, vascular endothelium-derived relaxing factor endothelial nitric oxide synthase, nitric oxide, and prostacyclin factor. The detection was performed according to the kit instructions. When testing the effect of the compound of the present application on cytokines, a normal control group, a fasudil hydrochloride group, and high-, medium- and low-dose groups of the compounds of the present application were set up for testing. The fasudil hydrochloride used in this test example was purchased from Beijing Sihuan Pharmaceutical Co., Ltd., with the SFDA approval number of H20173349. The EA.Hy926 cells used in this test example were purchased from Suzhou Beina Chuanglian Biotechnology Co., Ltd.
EA.Hy926 cells were taken and inoculated in a 96-well plate at 5×10^4 cells/mL, 100 μL per well, and cultured adherently for 24 hours, then the test compound prepared in DMEM medium was added, and an equal volume of DMEM medium was added in the normal control group, then the cells were cultured at 37° C. for 48 hours, and then the cell supernatant was taken and placed in an EP tube, and centrifuged at 3000 r/min, 4° C. for 15 min. The resulting cell supernatant was transferred to a new EP tube, diluted twice with culture medium, and detected according to the instruction of the human endothelin detection kit (purchased from Wuhan Boster Biological Engineering Co., Ltd., batch number 59113731009), and the detection results were shown in Table 2.

prostacyclin (PGI2) = assay: Expression of prostacyclin (PGI2) in EA.Hy926 endothelial cells, ELISA kit; format: cell-based; settings: EA.Hy926 cell supernatant, 24 h
Description: as §1
EA.Hy926 cells were taken and inoculated in a 96-well plate at 5×10^4 cells/mL, 100 μL per well, and cultured adherently for 24 hours, then the test compound prepared in DMEM medium was added, and an equal volume of DMEM medium was added in the normal control group, then the cells were cultured at 37° C. for 24 hours, and then the cell supernatant was taken and placed in an EP tube, and centrifuged for 15 min at 3000 r/min and 15° C. The resulting supernatant was transferred to a new EP tube, and then the detection was performed according to the instruction of ELISA kit (purchased from Wuhan Elabscience Biotechnology Co., Ltd., Cat. No. E-EL-0022c), and the detection results were shown in Table 3.

## C[C@@H]1CNCCCN1S(=O)(=O)c1cccc2c(O)ncc(C3CC3)c12 [Compound R-YK1600-1, (R)-4-cyclopropyl-5-((2-methyl-1,4-diazacycloheptan-1-yl)sulfonyl)isoquinolin-1-ol]
Endothelin (ET-1)
  expression of endothelin in endothelial cells: Detection result of test compound at low dose (0.4 μM): 228.20 ± 2.28 pg/mL
  expression of endothelin in endothelial cells: Detection result of test compound at medium dose (2 μM): 229.34 ± 7.96 pg/mL
  expression of endothelin in endothelial cells: Detection result of test compound at high dose (10 μM): 227.68 ± 3.34 pg/mL
Prostacyclin (PGI2)
  expression of prostacyclin in endothelial cells: Detection result of test compound at low dose (0.4 μM): 243.20 ± 2.28 pg/mL
  expression of prostacyclin in endothelial cells: Detection result of test compound at medium dose (2 μM): 242.34 ± 7.96 pg/mL
  expression of prostacyclin in endothelial cells: Detection result of test compound at high dose (10 μM): 247.68 ± 3.34 pg/mL

## COc1ncc(C2CC2)c2c(S(=O)(=O)N3CCCNC[C@H]3C)cccc12 [Compound R-YK1600-2, (R)-4-cyclopropyl-1-methoxy-5-((2-methyl-1,4-diazacycloheptan-1-yl)sulfonyl)isoquinoline]
Endothelin (ET-1)
  expression of endothelin in endothelial cells: Detection result of test compound at low dose (0.4 μM): 223.55 ± 0.12 pg/mL
  expression of endothelin in endothelial cells: Detection result of test compound at medium dose (2 μM): 225.98 ± 11.41 pg/mL
  expression of endothelin in endothelial cells: Detection result of test compound at high dose (10 μM): 229.23 ± 0.75 pg/mL
Prostacyclin (PGI2)
  expression of prostacyclin in endothelial cells: Detection result of test compound at low dose (0.4 μM): 241.55 ± 0.12 pg/mL
  expression of prostacyclin in endothelial cells: Detection result of test compound at medium dose (2 μM): 245.98 ± 11.41 pg/mL
  expression of prostacyclin in endothelial cells: Detection result of test compound at high dose (10 μM): 249.23 ± 0.75 pg/mL

## C[C@@H]1CNCCCN1S(=O)(=O)c1cccc2c(O)nccc12 [Compound R-YK1601, (R)-5-((2-methyl-1,4-diazacycloheptan-1-yl)sulfonyl)isoquinolin-1-ol]
Endothelin (ET-1)
  expression of endothelin in endothelial cells: Detection result of test compound at low dose (0.4 μM): 253.46 ± 19.86 pg/mL
  expression of endothelin in endothelial cells: Detection result of test compound at medium dose (2 μM): 266.61 ± 20.77 pg/mL
  expression of endothelin in endothelial cells: Detection result of test compound at high dose (10 μM): 243.07 ± 17.37 pg/mL
Prostacyclin (PGI2)
  expression of prostacyclin in endothelial cells: Detection result of test compound at low dose (0.4 μM): 253.00 ± 5.55 pg/mL
  expression of prostacyclin in endothelial cells: Detection result of test compound at medium dose (2 μM): 253.52 ± 55.60 pg/mL
  expression of prostacyclin in endothelial cells: Detection result of test compound at high dose (10 μM): 227.01 ± 16.23 pg/mL

## COc1nccc2c(S(=O)(=O)N3CCCNC[C@H]3C)cccc12 [Compound R-YK1602, (R)-1-methoxy-5-((2-methyl-1,4-diazacycloheptan-1-yl)sulfonyl)isoquinoline]
Endothelin (ET-1)
  expression of endothelin in endothelial cells: Detection result of test compound at low dose (0.4 μM): 263.55 ± 0.12 pg/mL
  expression of endothelin in endothelial cells: Detection result of test compound at medium dose (2 μM): 285.24 ± 13.22 pg/mL
  expression of endothelin in endothelial cells: Detection result of test compound at high dose (10 μM): 238.19 ± 19.65 pg/mL
Prostacyclin (PGI2)
  expression of prostacyclin in endothelial cells: Detection result of test compound at low dose (0.4 μM): 248.71 ± 19.98 pg/mL
  expression of prostacyclin in endothelial cells: Detection result of test compound at medium dose (2 μM): 263.34 ± 15.04 pg/mL
  expression of prostacyclin in endothelial cells: Detection result of test compound at high dose (10 μM): 241.51 ± 16.58 pg/mL

## C[C@@H]1CNCCCN1S(=O)(=O)c1cccc2cnccc12 [Compound R-YK1603, (R)-5-((2-methyl-1,4-diazacycloheptan-1-yl)sulfonyl)isoquinoline]
Endothelin (ET-1)
  expression of endothelin in endothelial cells: Detection result of test compound at low dose (0.4 μM): 242.75 ± 52.53 pg/mL
  expression of endothelin in endothelial cells: Detection result of test compound at medium dose (2 μM): 252.72 ± 22.83 pg/mL
  expression of endothelin in endothelial cells: Detection result of test compound at high dose (10 μM): 242.03 ± 1.24 pg/mL
Prostacyclin (PGI2)
  expression of prostacyclin in endothelial cells: Detection result of test compound at low dose (0.4 μM): 262.30 ± 0.77 pg/mL
  expression of prostacyclin in endothelial cells: Detection result of test compound at medium dose (2 μM): 272.58 ± 4.40 pg/mL
  expression of prostacyclin in endothelial cells: Detection result of test compound at high dose (10 μM): 243.73 ± 15.66 pg/mL

## C[C@@H]1CNCCCN1S(=O)(=O)c1cccc2c(O)ncc(F)c12 [Compound R-YK1604, (R)-4-fluoro-5-((2-methyl-1,4-diazacycloheptan-1-yl)sulfonyl)isoquinolin-1-ol]
Endothelin (ET-1)
  expression of endothelin in endothelial cells: Detection result of test compound at low dose (0.4 μM): 232.75 ± 42.51 pg/mL
  expression of endothelin in endothelial cells: Detection result of test compound at medium dose (2 μM): 242.72 ± 20.81 pg/mL
  expression of endothelin in endothelial cells: Detection result of test compound at high dose (10 μM): 230.03 ± 1.24 pg/mL
Prostacyclin (PGI2)
  expression of prostacyclin in endothelial cells: Detection result of test compound at low dose (0.4 μM): 280.40 ± 9.89 pg/mL
  expression of prostacyclin in endothelial cells: Detection result of test compound at medium dose (2 μM): 279.35 ± 28.69 pg/mL
  expression of prostacyclin in endothelial cells: Detection result of test compound at high dose (10 μM): 251.44 ± 42.48 pg/mL
